Test results: patent US12673945B2, “3-((8-((1H-pyrazol-4-yl)amino)imidazo[1,2-a]pyridin-3-yl)ethinyl)-n-phenylbenzamide derivative, method for preparing same, and pharmaceutical composition containing same as active ingredient for prevention or treatment of cancer” (DAEGU-GYEONGBUK MEDICAL INNOVATION FOUNDATION, priority 2020, dated 2026)

Legend:
Format in all cases: cell-based
T315I-TCCS cells = assay: human CML cell proliferation inhibition; details: 72 hours, Cell Counting Kit-8
Procedure: (§1) In order to evaluate the therapeutic effect of the compound according to the present invention on chronic myelogenous leukemia (CML), the following experiment was performed, and the results are shown in Table 6 below. Inhibitory activity to Bcr-Abl kinase was evaluated through the experiment using TCCS and KOPM28 cells, and inhibitory activity to T315I-Bcr-Abl kinase was evaluated through the experiment using T315I-TCCS and T315I-KOPM28 cells.
(§2) Human chronic myelogenous leukemia (CML) cells used in the experiment were TCCS, T315I-TCCS, KOPM28 and T315I-KOPM28, and the four types of cells were provided by University of Yamanashi.
(§3) Four types of human CML cells were each seeded in 96-well plates at the density of 1×10^4/90 μL/well. A culture solution containing 9 concentrations (0.000256 to 100 μM) of each example compound serially diluted in 5 folds or DMSO (control) were added to the plate (10 μL/well) to a final concentration of 0 to 10 μM. The plate was incubated in a 37° C. CO2 incubator for 72 hours.
(§4) After incubation for 72 hours, the plate treated with the compound was treated with Cell Counting Kit-8 (Dojindo Molecular Technologies, Inc) solution at the concentration of 10 μL/well, and then mixed well. Then, the plate was incubated in a CO2 incubator at 37° C. for 2 hours, and absorbance at 450 nm was measured with a microplate reader. Data were expressed as percentage compared to vehicle treated cells and GI50 values were calculated using GraphPad Prism 8.0 (GraphPad software Inc., San Diego).

T315I-KOPM28 cells = assay: human CML cell proliferation inhibition; details: 72 hours, Cell Counting Kit-8
Procedure: as §1, §2, §3, §4

TCCS cells = assay: human CML cell proliferation inhibition; details: 72 hours, Cell Counting Kit-8
Procedure: as §1, §2, §3, §4

KOPM28 cells = assay: human CML cell proliferation inhibition; details: 72 hours, Cell Counting Kit-8
Procedure: as §1, §2, §3, §4

Parental (Ba/F3) = assay: Ba/F3 cell proliferation inhibition; details: BaF3; 72 hours, Cell Counting Kit-8
Procedure: as §3, with “[…] lymphocyte cells, Parental (Ba/F3) and T315I-Bcr-Abl (Ba/F3)” for “Four types of human CML cells”, “were” for “were each”, “(0.015” for “(0.000256”, “3” for “5”, “[…])” for “μL/well)”
as §4, with “5.0” for “8.0”, “Diego) […].” for “Diego).”

T315I-Bcr-Abl (Ba/F3) = assay: Ba/F3 cell proliferation inhibition; details: BaF3; 72 hours, Cell Counting Kit-8
Procedure: as §3, with “[…] lymphocyte cells, Parental (Ba/F3) and T315I-Bcr-Abl (Ba/F3)” for “Four types of human CML cells”, “were” for “were each”, “(0.015” for “(0.000256”, “3” for “5”, “[…])” for “μL/well)”
as §4, with “5.0” for “8.0”, “Diego) […].” for “Diego).”

Row | GI50 (T315I-Bcr-Abl (Ba/F3)) [nM] | SMILES | GI50 (T315I-TCCS cells) [nM] | GI50 (T315I-KOPM28 cells) [nM] | GI50 (TCCS cells) [nM] | GI50 (KOPM28 cells) [nM] | GI50 (Parental (Ba/F3)) [nM]
1 | 50 to 500 | Cc1cc(F)c(C(=O)Nc2cc(-c3cccnc3)cc(C(C)(C)C#N)c2)cc1C#Cc1cnc2c(Nc3cnn(C)c3)cccn12 [Example 18, N-(3-(2-cyanopropan-2-yl)-5-(pyridin-3-yl)phenyl)-2-fluoro-4-methyl-5-((8-((1-methyl-1H-pyrazol-4-yl)amino)imidazo[1,2-a]pyridin-3-yl)ethynyl)benzamide] | 100 | 100 | < 10 | < 10 | > 5000
2 | 50 to 500 | Cc1cc(F)c(C(=O)Nc2cc(N3CCCN(C)CC3)cc(C(C)(C)C#N)c2)cc1C#Cc1cnc2c(Nc3cnn(C)c3)cccn12 [Example 21, N-(3-(2-cyanopropan-2-yl)-5-(4-methyl-1,4-diazepan-1-yl)phenyl)-2-fluoro-4-methyl-5-((8-((1-methyl-1H-pyrazol-4-yl)amino)imidazo[1,2-a]pyridin-3-yl)ethynyl)benzamide] | 100 | > 100 | < 10 | < 10 | 500 to 5000
3 | 50 to 500 | Cc1cc(F)c(C(=O)Nc2cc(N(C)CCCN(C)C)cc(C(C)(C)C#N)c2)cc1C#Cc1cnc2c(Nc3cnn(C)c3)cccn12 [Example 23, N-(3-(2-cyanopropan-2-yl)-5-((3-(dimethylamino)propyl)(methyl)amino)phenyl)-2-fluoro-4-methyl-5-((8-((1-methyl-1H-pyrazol-4-yl)amino)imidazo[1,2-a]pyridin-3-yl)ethynyl)benzamide] | > 100 | > 100 | < 10 | < 10 | 500 to 5000
4 | 50 to 500 | Cc1cc(F)c(C(=O)Nc2cc(N3CCN(C)C(=O)C3)cc(C(C)(C)C#N)c2)cc1C#Cc1cnc2c(Nc3cnn(C)c3)cccn12 [Example 24, N-(3-(2-cyanopropan-2-yl)-5-(4-methyl-3-oxopiperazin-1-yl)phenyl)-2-fluoro-4-methyl-5-((8-((1-methyl-1H-pyrazol-4-yl)amino)imidazo[1,2-a]pyridin-3-yl)ethynyl)benzamide] | 100 | 100 | < 10 | < 10 | 500 to 5000
5 | 50 to 500 | Cc1cc(F)c(C(=O)Nc2cc(CN3CCOCC3)cc(C(C)(C)C#N)c2)cc1C#Cc1cnc2c(Nc3cnn(C)c3)cccn12 [Example 28, N-(3-(2-cyanopropan-2-yl)-5-(morpholinomethyl)phenyl)-2-fluoro-4-methyl-5-((8-((1-methyl-1H-pyrazol-4-yl)amino)imidazo[1,2-a]pyridin-3-yl)ethynyl)benzamide] | > 100 | > 100 | < 10 | < 10 | > 5000
6 | 50 to 500 | Cc1cc(F)c(C(=O)Nc2cc(CN3CCC(N(C)C)C3)cc(C(C)(C)C#N)c2)cc1C#Cc1cnc2c(Nc3cnn(C)c3)cccn12 (stereo not drawn) [Example 29, N-(3-(2-cyanopropan-2-yl)-5-((3-(dimethylamino)pyrrolidin-1-yl)methyl)phenyl)-2-fluoro-4-methyl-5-((8-((1-methyl-1H-pyrazol-4-yl)amino)imidazo[1,2-a]pyridin-3-yl)ethynyl)benzamide] | 100 | 100 | < 10 | < 10 | 500 to 5000

Second part, the compound before the results:

Row | SMILES | GI50 (T315I-Bcr-Abl (Ba/F3)) [nM] | GI50 (T315I-TCCS cells) [nM] | GI50 (T315I-KOPM28 cells) [nM] | GI50 (TCCS cells) [nM] | GI50 (KOPM28 cells) [nM] | GI50 (Parental (Ba/F3)) [nM]
7 | Cc1cc(F)c(C(=O)Nc2cc(-c3cnn(C)c3)cc(C(C)(C)C#N)c2)cc1C#Cc1cnc2c(Nc3cnn(C)c3)cccn12 [Example 19, N-(3-(2-cyanopropan-2-yl)-5-(1-methyl-1H-pyrazol-4-yl)phenyl)-2-fluoro-4-methyl-5-((8-((1-methyl-1H-pyrazol-4-yl)amino)imidazo[1,2-a]pyridin-3-yl)ethynyl)benzamide] | 50 to 500 | 100 | > 100 | < 10 | < 10 | > 5000
8 | Cc1cc(F)c(C(=O)Nc2cc(N3CCN(C)CC3)cc(C(C)(C)C#N)c2)cc1C#Cc1cnc2c(Nc3cnn(C)c3)cccn12 [Example 20, N-(3-(2-cyanopropan-2-yl)-5-(4-methylpiperazin-1-yl)phenyl)-2-fluoro-4-methyl-5-((8-((1-methyl-1H-pyrazol-4-yl)amino)imidazo[1,2-a]pyridin-3-yl)ethynyl)benzamide] | 50 to 500 | 100 | > 100 | < 10 | < 10 | 500 to 5000
9 | Cc1cc(F)c(C(=O)Nc2cc(N(C)CCN(C)C)cc(C(C)(C)C#N)c2)cc1C#Cc1cnc2c(Nc3cnn(C)c3)cccn12 [Example 22, N-(3-(2-cyanopropan-2-yl)-5-((2-(dimethylamino)ethyl)(methyl)amino)phenyl)-2-fluoro-4-methyl-5-((8-((1-methyl-1H-pyrazol-4-yl)amino)imidazo[1,2-a]pyridin-3-yl)ethynyl)benzamide] | 50 to 500 | 100 | 100 | < 10 | < 10 | 500 to 5000
10 | Cc1cc(F)c(C(=O)Nc2cc(N3CCC(N4CCN(C)CC4)CC3)cc(C(C)(C)C#N)c2)cc1C#Cc1cnc2c(Nc3cnn(C)c3)cccn12 [Example 25, N-(3-(2-cyanopropan-2-yl)-5-(4-(4-methylpiperazin-1-yl)piperidin-1-yl)phenyl)-2-fluoro-4-methyl-5-((8-((1-methyl-1H-pyrazol-4-yl)amino)imidazo[1,2-a]pyridin-3-yl)ethynyl)benzamide] | 50 to 500 | > 100 | 100 | < 10 | < 10 | 500 to 5000
11 | Cc1cc(F)c(C(=O)Nc2cc(Oc3ccncc3)cc(C(C)(C)C#N)c2)cc1C#Cc1cnc2c(Nc3cnn(C)c3)cccn12 [Example 26, N-(3-(2-cyanopropan-2-yl)-5-(pyridin-4-yloxy)phenyl)-2-fluoro-4-methyl-5-((8-((1-methyl-1H-pyrazol-4-yl)amino)imidazo[1,2-a]pyridin-3-yl)ethynyl)benzamide] | < 50 | < 10 | 100 | < 10 | < 10 | > 5000
12 | Cc1cc(F)c(C(=O)Nc2cc(CN3CCN(C)CC3)cc(C(C)(C)C#N)c2)cc1C#Cc1cnc2c(Nc3cnn(C)c3)cccn12 [Example 27, N-(3-(2-cyanopropan-2-yl)-5-((4-methylpiperazin-1-yl)methyl)phenyl)-2-fluoro-4-methyl-5-((8-((1-methyl-1H-pyrazol-4-yl)amino)imidazo[1,2-a]pyridin-3-yl)ethynyl)benzamide] | < 50 | 100 | 100 | < 10 | < 10 | 500 to 5000
13 | Cc1cc(F)c(C(=O)Nc2cc(CN3CCCN(C)CC3)cc(C(C)(C)C#N)c2)cc1C#Cc1cnc2c(Nc3cnn(C)c3)cccn12 [Example 30, N-(3-(2-cyanopropan-2-yl)-5-((4-methyl-1,4-diazepan-1-yl)methyl)phenyl)-2-fluoro-4-methyl-5-((8-((1-methyl-1H-pyrazol-4-yl)amino)imidazo[1,2-a]pyridin-3-yl)ethynyl)benzamide] | 50 to 500 | 100 | > 100 | < 10 | < 10 | 500 to 5000
14 | Cc1cc(F)c(C(=O)Nc2cc(CN3CCC(C(F)(F)F)CC3)cc(C(C)(C)C#N)c2)cc1C#Cc1cnc2c(Nc3cnn(C)c3)cccn12 [Example 31, N-(3-(2-cyanopropan-2-yl)-5-((4-(trifluoromethyl)piperidin-1-yl)methyl)phenyl)-2-fluoro-4-methyl-5-((8-((1-methyl-1H-pyrazol-4-yl)amino)imidazo[1,2-a]pyridin-3-yl)ethynyl)benzamide] | 50 to 500 | > 100 | > 100 | < 10 | < 10 | > 5000
